# Experimental data published in US20080193400A1, “C-Glycoside Compounds and Use Thereof for Depigmenting the Skin” (priority 2005, published 2008).
# How the values were obtained:
# [1] = test system: co-culture of keratinocytes and melanocytes; assay: Cytotoxicity by incorporation of leucine in a keratinocyte/melanocyte co-culture; type: cell-based; conditions: estimated by incorporation of leucine
# Method: (§1) The melanogenesis-modulating effect of the compound of Example 2 was measured according to the method described in patent FR-A-2 734 825, and also in the article by R. Schmidt, P. Krien and M. Régnier, Anal. Biochem., 235(2), 113-18, (1996). This test is performed on a co-culture of keratinocytes and melanocytes.
# (§2) The following were determined for the test compound: • the cytotoxicity, by estimating the incorporation of leucine, • the inhibitory activity on melanin synthesis, by estimating the ratio of the incorporation of thiouracil to the incorporation of leucine, relative to 100% of the control (the control corresponds to the test performed without test compound). The IC50 values (the concentration for which a 50% inhibition of melanogenesis is observed) were also determined.
# (§3) The test was also performed with arbutin, which is a known depigmenting compound.
# [2] = test system: co-culture of keratinocytes and melanocytes; assay: Inhibition of melanin synthesis (ratio of thiouracil to leucine incorporation) in a keratinocyte/melanocyte co-culture; type: cell-based; conditions: for IC50: ratio of thiouracil to leucine incorporation relative to 100% of control, read-out: IC50 (concentration for which a 50% inhibition of melanogenesis is observed)
# Method: as §1, §2, §3
IC50 [2],Compound,Cytotoxicity [1],Inhibition of melanogenesis (in words) ([2]; compared with arbutin)
100 µM,OC[C@H]1O[C@@H](CC(O)c2ccc(O)cc2)[C@H](O)[C@@H](O)[C@@H]1O (some centres unmarked) [Example 2],No,more efficient than arbutin
≥ 100 µM,"OC[C@H]1O[C@@H](Oc2ccc(O)cc2)[C@H](O)[C@@H](O)[C@@H]1O [Arbutin, arbutin, reference compound]",No,
